Measured values as given in PubChem BioAssay (NCI).
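Briefly, cells in 96-well plates were exposed to five compound concentrations for 48 h, and endpoints were estimated by linear interpolation. TGI denotes the concentration required for complete inhibition of growth.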

What was measured:
Test in all cases: NCI tumour cell line growth inhibition, 48 h
[1] = system: 786-0 renal
[2] = system: A498 renal
[3] = system: A549 NSCLC
[4] = system: ACHN renal
[5] = system: BT-549 breast
[6] = system: CAKI-1 renal
[7] = system: CCRF-CEM leukemia
[8] = system: COLO 205 colon
[9] = system: DU-145 prostate
[10] = system: EKVX NSCLC
[11] = system: HCC-2998 colon
[12] = system: HCT-116 colon
[13] = system: HCT-15 colon
[14] = system: HL-60(TB) leukemia
[15] = system: HOP-62 NSCLC
[16] = system: HOP-92 NSCLC
[17] = system: HS 578T breast
[18] = system: HT29 colon
[19] = system: IGROV1 ovarian
[20] = system: K-562 leukemia
[21] = system: KM12 colon
[22] = system: LOX IMVI melanoma
[23] = system: M14 melanoma
[24] = system: MALME-3M melanoma
[25] = system: MCF7 breast
[26] = system: MDA-MB-435
[27] = system: MDA-N
[28] = system: MOLT-4 leukemia
[29] = system: NCI-H226 lung
[30] = system: NCI-H23 lung
[31] = system: NCI-H460 lung
[32] = system: NCI-H522 lung
[33] = system: NCI/ADR-RES ovarian
[34] = system: OVCAR-3 ovarian
[35] = system: OVCAR-4 ovarian
[36] = system: OVCAR-5 ovarian
[37] = system: OVCAR-8 ovarian
[38] = system: PC-3 prostate
[39] = system: RPMI-8226 leukemia
[40] = system: RXF 393 renal
[41] = system: SF-268 CNS
[42] = system: SF-295 CNS
[43] = system: SF-539 CNS
[44] = system: SK-MEL-2 melanoma
[45] = system: SK-MEL-28 melanoma
[46] = system: SK-MEL-5 melanoma
[47] = system: SK-OV-3 ovarian
[48] = system: SN12C renal
[49] = system: SNB-19 CNS
[50] = system: SNB-75 CNS
[51] = system: SR leukemia
[52] = system: SW-620 colon
[53] = system: T-47D breast
[54] = system: TK-10 renal
[55] = system: U251 CNS
[56] = system: UACC-257 melanoma
[57] = system: UACC-62 melanoma
[58] = system: UO-31 renal

O=C1CC(=O)c2c(N3CCCC3)sc(N3CCCC3)c21
TGI [1]: > 100 µM | TGI [2]: > 100 µM | TGI [3]: > 100 µM | TGI [4]: > 100 µM | TGI [5]: > 100 µM | TGI [6]: > 100 µM | TGI [7]: > 100 µM | TGI [8]: > 100 µM | TGI [9]: > 100 µM | TGI [10]: > 100 µM | TGI [11]: > 100 µM | TGI [12]: > 100 µM | TGI [13]: > 100 µM | TGI [14]: > 100 µM | TGI [15]: > 100 µM | TGI [16]: > 100 µM | TGI [17]: > 100 µM | TGI [18]: > 100 µM | TGI [19]: > 100 µM | TGI [20]: > 100 µM | TGI [21]: > 100 µM | TGI [22]: > 100 µM | TGI [23]: > 100 µM | TGI [24]: > 100 µM | TGI [25]: > 100 µM | TGI [26]: > 100 µM | TGI [27]: > 100 µM | TGI [28]: > 100 µM | TGI [29]: > 100 µM | TGI [30]: > 100 µM | TGI [31]: > 100 µM | TGI [32]: > 100 µM | TGI [33]: > 100 µM | TGI [34]: > 100 µM | TGI [35]: > 100 µM | TGI [36]: > 100 µM | TGI [37]: > 100 µM | TGI [38]: > 100 µM | TGI [39]: > 100 µM | TGI [40]: > 100 µM | TGI [41]: > 100 µM | TGI [42]: > 100 µM | TGI [43]: > 100 µM | TGI [44]: > 100 µM | TGI [45]: > 100 µM | TGI [46]: > 100 µM | TGI [47]: > 100 µM | TGI [48]: > 100 µM | TGI [49]: > 100 µM | TGI [50]: > 100 µM | TGI [51]: > 100 µM | TGI [52]: > 100 µM | TGI [53]: > 100 µM | TGI [54]: > 100 µM | TGI [55]: > 100 µM | TGI [56]: > 100 µM | TGI [57]: > 100 µM | TGI [58]: > 100 µM

CN(C)c1ccc(C2C(Cl)C(=O)N2NC(=O)c2c(Cl)c(Cl)c(Cl)c(Cl)c2-c2nc3ccccc3[nH]2)cc1 (centres undefined)
TGI [1]: 6.2 µM | TGI [2]: 40.2 µM | TGI [3]: > 100 µM | TGI [4]: 34.6 µM | TGI [5]: 33.2 µM | TGI [6]: 41.1 µM | TGI [7]: > 100 µM | TGI [8]: 66.1 µM | TGI [9]: 22.5 µM | TGI [10]: 67.4 µM | TGI [11]: 30.2 µM | TGI [12]: 23.9 µM | TGI [13]: 32.6 µM | TGI [14]: 28.8 µM | TGI [16]: 23.9 µM | TGI [17]: > 100 µM | TGI [18]: 68.9 µM | TGI [19]: 17.2 µM | TGI [20]: > 100 µM | TGI [21]: 48.4 µM | TGI [22]: 30 µM | TGI [23]: 51.7 µM | TGI [24]: 36.3 µM | TGI [25]: 23.1 µM | TGI [26]: > 100 µM | TGI [27]: 55.8 µM | TGI [28]: > 100 µM | TGI [29]: 69.7 µM | TGI [30]: 29.7 µM | TGI [32]: 11.9 µM | TGI [33]: > 100 µM | TGI [34]: 44.7 µM | TGI [36]: > 100 µM | TGI [38]: 50.9 µM | TGI [40]: 8.96 µM | TGI [41]: 43.5 µM | TGI [42]: > 100 µM | TGI [43]: 57.4 µM | TGI [44]: 86.7 µM | TGI [45]: > 100 µM | TGI [46]: 48.6 µM | TGI [47]: > 100 µM | TGI [48]: 38.4 µM | TGI [49]: 94.3 µM | TGI [50]: 44.3 µM | TGI [51]: > 100 µM | TGI [52]: > 100 µM | TGI [53]: 25.2 µM | TGI [56]: 44.6 µM | TGI [57]: 37.5 µM | TGI [58]: 78.5 µM
